Laboratory results from PubChem BioAssay (NCI).
Where “and” joins values, the source holds several entries; their conditions need not be identical. Equal entries are not always repeated.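 These data come from cells grown in 96-well plates and exposed to compound for 48 hours at five concentrations. Abbreviation: GI50, concentration required for 50% inhibition of growth. TGI: concentration producing complete growth inhibition.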

Assays:
Experiment in all cases: growth of human tumour cells (NCI), 48 h
MOLT-4 leukemia = tested on: MOLT-4 leukemia
MALME-3M melanoma = tested on: MALME-3M melanoma
NCI-H460 lung = tested on: NCI-H460 lung
OVCAR-4 ovarian = tested on: OVCAR-4 ovarian
K-562 leukemia = tested on: K-562 leukemia
COLO 205 colon = tested on: COLO 205 colon
UACC-257 melanoma = tested on: UACC-257 melanoma
NCI-H226 lung = tested on: NCI-H226 lung
SNB-19 CNS = tested on: SNB-19 CNS
RPMI-8226 leukemia = tested on: RPMI-8226 leukemia

Compound	GI50 (MOLT-4 leukemia) [µM]	TGI (MOLT-4 leukemia) [µM]	GI50 (MALME-3M melanoma) [µM]	TGI (MALME-3M melanoma) [µM]	GI50 (NCI-H460 lung)	TGI (NCI-H460 lung)	GI50 (OVCAR-4 ovarian)	TGI (OVCAR-4 ovarian)	GI50 (K-562 leukemia) [nM]	TGI (K-562 leukemia) [µM]	GI50 (COLO 205 colon)	TGI (COLO 205 colon)	GI50 (UACC-257 melanoma) [µM]	TGI (UACC-257 melanoma) [µM]	GI50 (NCI-H226 lung) [µM]	TGI (NCI-H226 lung) [µM]	GI50 (SNB-19 CNS)	TGI (SNB-19 CNS)	GI50 (RPMI-8226 leukemia) [nM]	TGI (RPMI-8226 leukemia) [µM]
CCCCCCCCCCCCOC1C(C(CC(=O)NCCN2CCCC2)NS(=O)(=O)c2cc(Cl)cc(Cl)c2)OC2OC(C)(C)OC21 (stereo not given)	2.03	4.33	1.89	3.62	1860 nM and 1890 nM	3.68 µM and 3.73 µM	2 µM and 1.7 µM	3.7 µM and 3.51 µM	2340	4.85	2060 nM and 1190 nM	4.4 µM and 2.66 µM	2.04	4.84	1.86	4.04	2200 nM and 1370 nM	4.36 µM and 2.81 µM	1230	3.21
Cc1cccc(C)c1NC(=O)C(=O)CC(=O)c1cccc([N+](=O)[O-])c1		> 100		> 100		> 100 µM		> 100 µM		> 100		> 100 µM		> 100		> 100		> 100 µM		> 100
O=c1nc(-c2ccccc2)cc(-c2ccccc2O)[nH]1		> 100		> 100		> 100 µM		> 100 µM		> 100		> 100 µM		> 100		> 100		> 100 µM		> 100
Cc1cc(C(C)(C)C)cc(Cc2cc(C(C)(C)C)cc(Cc3cc(C(C)(C)C)cc(C)c3O)c2O)c1O		10.6		22.5		21.8 µM		20.2 µM		16.4		29.7 µM		20.8		24.6		26 µM		6.44
Cc1cc(C)n(-c2nnc3n2N=C(c2ccc(-c4ccccc4)cc2)CS3)n1	3.66	> 100	3.44	17	3350 nM	> 100 µM	4.12 µM	> 100 µM	3580	> 100	2230 nM	4.77 µM	4.99	> 100	4.24	> 100	3980 nM	> 100 µM	3180	> 100
CO/N=C(/C)c1cccc(Nc2cc(-c3ccccc3)nc3ccc(OC)cc23)c1	3.05	> 100	2.45	7.78	7070 nM	> 100 µM	20.2 µM	66.6 µM	2720	> 100	33100 nM	97.8 µM	18.4	43.2	15.7	41	35200 nM	> 100 µM	3120	8.28
CC/C=C/C/C=C/C/C=C/C/C=C/C/C=C/C/C=C/CCC(=O)Nc1ccn([C@@H]2O[C@H](CO)[C@@H](O)C2(F)F)c(=O)n1	0.0802	3.55	9.33	24.2	19.9 nM	12.1 µM	17.5 µM	65.5 µM	160	33.4	187 nM	19.1 µM	5.05	46.4	0.228	12.1	27.8 nM	26.6 µM	245	39
COC(=O)c1cc(/C=C/c2ccc(S(N)(=O)=O)cc2)ccc1O	73.1	> 100	34.5	> 100	27500 nM	66.4 µM	72.9 µM	> 100 µM	> 100000	> 100	29800 nM	> 100 µM	59.6	> 100	21.4	52.9	38200 nM	> 100 µM	27400	> 100
COC(=O)c1cccc2cccc(C(=O)Nc3ccc(Cl)cc3)c12		> 100		> 100		> 100 µM		> 100 µM		> 33		> 62.3 µM		> 100		> 100		> 100 µM		33.7
CCN(CC)CCNC(=O)c1ccc(C)c(OCc2ccccc2)c1[N+](=O)[O-]		77.8		31.2		> 100 µM		> 100 µM		49.2		30.8 µM		36.3		90.3		> 100 µM		72.6
CC[C@@]1(O)C(=O)OCc2c1cc1n(c2=O)Cc2c-1nc1cc(F)c(C)c3c1c2[C@@H](N)CC3	< 0.01	> 100	< 0.014	0.281	< 10 nM	> 33.7 µM	0.0656 µM	> 100 µM	< 11.7	> 100	26.5 nM	0.837 µM	< 0.0151	0.981	< 0.01	0.0358	< 10 nM	> 100 µM	10.9	1.58
c1ccc(CSc2nc3ccccc3nc2-c2cccs2)cc1		> 100		> 100		> 100 µM		> 100 µM		> 100		> 100 µM		> 100		> 100		> 100 µM		> 100
COCOc1ccc(C2(O)Oc3cc(OCOC)ccc3C2C)c(O)c1 (stereo not given)		60.8		28.7		27.1 µM		32.1 µM		44.7		32.2 µM		24.5		31.2		29.4 µM		> 100
Cc1ccc(Nc2nnc(-c3ccc4c(c3)OCO4)o2)c(C)c1		> 100		> 100		> 100 µM		> 100 µM		> 100		> 100 µM		> 100		> 100		> 100 µM		> 100
COC1=C(Br)C(=O)c2nc(C)ccc2C1=O		> 20.8		30.5		31.7 µM		26.3 µM		> 27.8		24.6 µM		26.6		38.2		> 55.1 µM		> 22.6
Nc1nc(N)nc(CCCc2nc(N)nc(N)n2)n1		> 100		> 100		> 100 µM		> 100 µM		> 100		> 100 µM		> 100		> 100		> 100 µM		> 100
O=C(OCC(OC(=O)c1ccccc1)C(OC(=O)c1ccccc1)C(OC(=O)c1ccccc1)c1cnn(-c2ccccc2)n1)c1ccccc1 (stereo not given)		> 100		> 100		> 100 µM		> 100 µM		> 100		> 100 µM		> 100		> 100		> 100 µM		> 100
